Reference: patent US20080125460A1, “Imidazopyridine-Derivatives As Inducible No-Synthase Inhibitors” (Altana Pharma AG, priority 2003, published 2008)

Tests used:
[1] = target: human inducible NO-synthase (Homo sapiens, UniProt P35228); test: Measurement of inducible NO-synthase activity ([3H]arginine conversion); format: biochemical; conditions: crude cytosolic fraction containing human inducible NO-synthase; 0.1 μM arginine; 45 to 60 min at 37° C.; read-out: Inhibition of iNOS activity [measured as -logIC50 (mol/l)] (converted)
Protocol: The assay is performed in 96well microtiter F-plates (Greiner, Frickenhausen, FRG) in a total volume of 100 μl in the presence of 100 nM calmodulin, 226 μM CaCl2, 477 μM MgCl2, 5 μM flavin-adenine-dinucleotide (FAD), 5 μM flavin mononucleotide (FMN), 0.1 mM NADPH, 7 mM glutathione, 10 μM BH4 and 100 mM HEPES pH 7.2. Arginine concentrations are 0.1 μM for enzyme inhibition experiments. 150000 dpm of [^3H]arginine are added to the assay mixture. Enzyme reaction is started by the addition of 4 μg of a crude cytosolic fraction containing human inducible NO-synthase and the reaction mixture is incubated for 45 to 60 min at 37° C. Enzyme reaction is stopped by adding 10 μl of 2M MES-buffer pH 5.0. 50 μl of the incubation mixture are transferred into a MADP N65 filtration microtiter plate (Millipore, Eschborn, FRG) containing already 50 μl of AG-50W-X8 cation exchange resin (Biorad, München, FRG). The resin in the Na loaded form is pre-equilibrated in water and 70 μl (corresponding to 50 μl dry beads) are pipetted under heavy stirring with a 8 channel pipette into the filtration plate. After pipetting 50 μl of the enzyme reaction mixture onto the filtration plates, the plates are placed on a filtration manifold (Porvair, Shepperton, UK) and the flow through is collected in Pico scintillation plates (Packard, Meriden, CT). The resin in the filtration plates is washed with 75 μl of water (1×50 μl and 1×25 μl) which is also collected in the same plate as the sample. The total flow through of 125 μl is mixed with 175 μl of Microscint-40 scintillation cocktail (Packard) and the scintillation plate is sealed with TopSeal P-foil (Packard). Scintillation plates are counted in a scintillation counter.
For the measurement of inducible NO-synthase-inhibiting potencies of compounds increasing concentrations of inhibitors were included into the incubation mixture. IC50-values were calculated from the percent inhibition at given concentrations by nonlinear least square fitting.

IC50 [1] [µM] | melting point [°C] | Compound
0.049 | 147 to 148 | COc1ccnc(CCc2nc3cc(-c4ccco4)cnc3[nH]2)c1 [Example 1, 6-Furan-2-yl-[2-(4-methoxypyridin-2-yl)ethyl]-3H-imidazo[4,5-b]pyridine]
0.0457 | 193 to 194 | COc1ccnc(CCc2nc3cc(-c4ccoc4)cnc3[nH]2)c1 [Example 2, 6-Furan-3-yl-[2-(4-methoxypyridin-2-yl)ethyl]-3H-imidazo[4,5-b]pyridine]
0.055 | 237 to 238 | COc1ccnc(CCc2nc3cc(-c4ccncc4)cnc3[nH]2)c1 [Example 3, 2-[2-(4-Methoxypyridin-2-yl)ethyl]-6-(pyridin-4-yl)-3H-imidazo-[4,5-b]pyridine]
0.0245 | 132 to 133 | COc1ccnc(CCc2nc3cc(-c4cccs4)cnc3[nH]2)c1 [Example 4, 2-[2-(4-Methoxypyridin-2-yl)ethyl]-6-(thiophen-2-yl)-3H-imidazo-[4,5-b]pyridine]
0.0347 | 154 to 155 | COc1ccnc(CCc2nc3cc(-c4ccsc4)cnc3[nH]2)c1 [Example 5, 2-[2-(4-Methoxypyridin-2-yl)ethyl]-6-(thiophen-3-yl)-3H-imidazo-[4,5-b]pyridine]
0.049 | 241 to 242 | COc1ccnc(CCc2nc3cc(-c4ccc5[nH]ccc5c4)cnc3[nH]2)c1 [Example 6, 6-(1H-Indol-5-yl)-2-[2-(4-methoxypyridin-2-yl)ethyl)-3H-imidazo-[4,5-b]pyridine]
0.0309 to 0.245 |  | COc1ccnc(CCc2nc3cc(-c4nc5ccccc5[nH]4)cnc3[nH]2)c1 [Example 7, 6-(1H-Benzoimidazol-2-yl)-2-[2-(4-methoxy-pyridin-2-yl)-ethyl]-3H-imidazo[4,5-b]pyridine]
0.0309 to 0.245 |  | COc1ccnc(CCc2nc3cc(-c4nc5cc(C)ccc5[nH]4)cnc3[nH]2)c1 [Example 8, 2-[2-(4-Methoxy-pyridin-2-yl)-ethyl]-6-(5-methyl-1H-benzoimidazol-2-yl)-3H-imidazo[4,5-b]pyridine]
0.0309 to 0.245 |  | COc1ccnc(CCc2nc3cc(-c4csc5ccccc45)cnc3[nH]2)c1 [Example 9, 6-Benzo[b]thiophen-3-yl-2-[2-(4-methoxy-pyridin-2-yl)-ethyl]-3H-imidazo[4,5-b]pyridine]
0.0309 to 0.245 |  | COc1ccnc(CCc2nc3cc(-c4cc5ccccc5o4)cnc3[nH]2)c1 [Example 10, 6-Benzofuran-2-yl-2-[2-(4-methoxy-pyridin-2-yl)-ethyl]-3H-imidazo[4,5-b]pyridine]
0.0309 to 0.245 |  | COc1ccnc(CCc2nc3cc(-c4cc5ccccc5s4)cnc3[nH]2)c1 [Example 11, 6-Benzo[b]thiophen-2-yl-2-[2-(4-methoxy-pyridin-2-yl)-ethyl]-3H-imidazo[4,5-b]pyridine]
0.0309 to 0.245 |  | COc1ccnc(CCc2nc3cc(-c4ccc(C)s4)cnc3[nH]2)c1 [Example 12, 2-[2-(4-Methoxy-pyridin-2-yl)-ethyl]-6-(5-methyl-thiophen-2-yl)-3H-imidazo[4,5-b]pyridine]
0.0309 to 0.245 |  | COc1ccnc(CCc2nc3cc(-c4ccc(-c5ccccc5)s4)cnc3[nH]2)c1 [Example 13, 2-[2-(4-Methoxy-pyridin-2-yl)-ethyl]-6-(5-phenyl-thiophen-2-yl)-3H-imidazo[4,5-b]pyridine]
